One test relates to CT26 wt_LLN cells. Kind of test: Antitumoral efficacy in orthotopic syngeneic CT26 wt colon carcinoma model. It counts as in vivo, female BALB/c mice. Particulars: necropsy day 20, pioglitazone HCl 25 mg/kg, pamapimod 100 mg/kg, p.o. once daily days 3-20; for antitumoral efficacy, primary tumor volume vs vehicle control / antitumoral efficacy, primary tumor weight vs vehicle control: alone or combined; for number of animals with metastases: of 12 animals per group, vehicle group six. Here is the method: Evaluation of the Antitumoral Efficacy of Pamapimod and Pioglitazone Hydrochloride Alone and in Combination in an Orthotopic Syngeneic CT26 wt Colon Carcinoma Model in Female BALB/c Mice In Vivo The study consisted of 4 experimental groups, each containing 12 female BALB/c mice after randomization (for details, see Table 1 below). On day 0, 0.5×10^5 CT26 wt_LLN cells suspended in 15 μl PBS:Matrigel (1:2) were orthotopically implanted into the caecum of all participating animals. In the following period, primary tumor growth was monitored once weekly on days 2, 9, 15 and 20 using in vivo bioluminescence imaging. On day 2, 48 animals were randomized into 4 groups of 12 animals each according to the current in vivo bioluminescence imaging results (block of four after ranking). For block randomization, a robust automated random number generation within individual blocks was used (MS-Excel 2016). Thereby, detected luciferase signals served as randomization criteria. On the following day (day 3), treatment was initiated in all groups (see Table 1 for details). All treatments were performed at 10 ml/kg 1× daily p.o. on days 3-20. Pioglitazone HCL (25 mg/kg) and pamapimod (100 mg/kg) were administered both alone (Groups 2 and 3, respectively) and in combination (Group 4) once daily p.o. Animals of Group 1 were treated with 10 ml/kg Vehicle Control (0.9% NaCl, 0.5% Methyl Cellulose, 0.4% polysorbate 80, 0.9% benzyl alcohol, pH 4.8) once daily p.o. On day 20, the study was terminated due to tumor burden All animals were sacrificed and a necropsy performed. Primary tumors were collected and wet weights and volumes determined. On day 0, prior to surgery, and 24 h after surgery, all animals received the analgetic Meloxicam (Metacam®; 1 mg/kg) via subcutaneous injection. […] Thereby, cells were carefully injected in between caecum and mesentery. After the caecum had been repositioned, the skin was closed with wound clips. In the following, animal weights were measured three times weekly (Monday, Wednesday and Friday; balance: Mettler Toledo PB602-L). Primary tumor growth was monitored once weekly on days 2, 9, 15 and 20 using in vivo bioluminescence imaging. On day 2, 48 animals were randomized into 4 groups of 12 animals each according to the current in vivo bioluminescence imaging results (block of four after ranking). For block randomization, a robust automated random number generation within individual blocks was used (MS-Excel 2016). Thereby, detected luciferase signals served as randomization criteria. On the following day (day 3), treatment was initiated in all groups (see Table 2 for details). During the course of the study, tumor growth was monitored once weekly on days 2, 9, 15 and 20 using in vivo bioluminescence imaging. For this purpose, 150 mg/kg D-Luciferin were injected intraperitoneally (i.p.) into the mice 7 min before anesthetization. Light emission was measured 10 min post injection with a CCD-camera for 1-5 min using a NightOWL LB 981 bioluminescence imaging system (Berthold Technologies, Germany). On day 20, animals were killed by cervical dislocation. Primary tumors were collected, wet weights and volumes determined. Primary tumor volumes were analyzed using descriptive data analysis (Mean, SEM, Median and interquartile range). Statistical analysis of efficacy data was done using the Mann Whitney test and the unpaired t-test (in parentheses). All data analysis was performed using GraphPad Prism 5 from GraphPad Software, Inc., San Diego, USA.

For a further test, the system named is A549 tumor cells. Kind of test: Antitumoral efficacy in subcutaneous xenograft A549 lung carcinoma model. It counts as in vivo, female athymic nude mice. Particulars: necropsy day 46; pioglitazone HCl 10 mg/kg, pamapimod 100 mg/kg, alone or combined, p.o. once daily days 22-45. On the procedure:
Evaluation of the Antitumoral Efficacy of Pamapimod and Pioglitazone Hydrochloride Alone and in Combination in a Subcutaneous Xenograft A549 Lung Carcinoma Model in Female Athymic Nude Mice In Vivo The study consisted of 4 experimental groups, each containing 10 female athymic nude mice after randomization (for details, see Table 1 below). On day 0, 2×10^6 A549 tumor cells in 100 μl PBS:Matrigel (1:1) were subcutaneously implanted into the left flank of all participating female athymic nude mice. In the following, primary tumor sizes were measured two times weekly (Monday and Friday) by calipering. […] For block randomization, a robust automated random number generation within individual blocks was used (MS-Excel 2003). On the following day (day 22), treatment was initiated in all groups (see Table 1 for details). Pioglitazone HCL (10 mg/kg) and pamapimod (100 mg/kg) were administered both alone (Groups 2 and 3, respectively) and in combination (Group 4) once daily p.o. on days 22-45. Animals of Group 1 were treated with 10 ml/kg Vehicle Control (0.9% NaCl, 0.5% Methyl Cellulose, 0.4% polysorbate 80, 0.9% benzyl alcohol, pH 4.8) once daily p.o. for the same time period. The study was terminated on day 46. All animals were sacrificed and necropsy was performed. Primary tumors were collected and wet weights and volumes determined. On day 0, 2×10^6 A549 tumor cells in 100 μl PBS:Matrigel (1:1) were subcutaneously implanted into the left flank of 54 female athymic nude mice. In the following, animal weights were measured three times weekly (Monday, Wednesday and Friday; balance: Mettler Toledo PB602-L). Primary tumor sizes were measured twice weekly by calipering (manual caliper, OMC Fontana). Tumor sizes were calculated according to the formula W^2×L/2 (L=length and W=the perpendicular width of the tumor, L>W). […] For block randomization, a robust automated random number generation within individual blocks was used (MS-Excel 2003). On the following day (day 22), treatment was initiated in all groups (see Table 1 for details). At necropsy, animals were weighed and killed by cervical dislocation. Primary tumors were collected and wet weights and volumes determined. Primary tumor volumes were analyzed using descriptive data analysis (Mean, SEM, Median and interquartile range). Statistical analysis of efficacy data was done using the Mann Whitney test and the unpaired t-test (in parentheses). All data analysis was performed using GraphPad Prism 5 from GraphPad Software, Inc., San Diego, USA.

Structures can show the parent of a compound that is named as a salt.

On to `Cn1c(=O)c(Oc2ccc(F)cc2F)cc2cnc(NC(CCO)CCO)nc21` [pamapimod, 6-(2,4-Difluorophenoxy)-2-[3-hydroxy-1-(2-hydroxyethyl)-propylamino]-8-methyl-8H-pyrido[2,3-d]pyrimidin-7-one], for which, in the test with CT26 wt_LLN cells, the “antitumoral efficacy, primary tumor volume vs vehicle control” value is listed as “significant in case of primary tumor volumes”; the “antitumoral efficacy, primary tumor weight vs vehicle control” value was “just beyond significance in case of primary tumor weights”; the “number of animals with metastases” value is reported as 2 animals. In the test with A549 tumor cells, the “primary tumor volume vs vehicle control” value was “noticeable decrease in both tumor volumes and tumor weights which was significant for tumor volume”; the “primary tumor weight vs vehicle control” value is on record as “nearly significant for tumor weight”.

In the case of `CCc1ccc(CCOc2ccc(CC3SC(=O)NC3=O)cc2)nc1` (stereo not shown) [pioglitazone HCl, pioglitazone hydrochloride], in the test on CT26 wt_LLN cells, the “antitumoral efficacy, primary tumor volume vs vehicle control” value is given as “no antitumoral efficacy”; the “antitumoral efficacy, primary tumor weight vs vehicle control” value is “no antitumoral efficacy”; the “number of animals with metastases” value was “four”. Moreover, in the test with A549 tumor cells, the “primary tumor volume vs vehicle control” value is “noticeable reduction in both tumor volumes and tumor weights compared to control which approached statistical significance”; the “primary tumor weight vs vehicle control” value is “noticeable reduction in both tumor volumes and tumor weights compared to control which approached statistical significance”.

For the origin of these results see US11285155B2, “Pharmaceutical combinations for treating cancer” (SUPPORT-VENTURE GMBH, priority 2016, dated 2022).
